pIC50: −log10 of the molar value.
What was measured:
[1] = test system: A549 cells; assay: DNA platination in cells, DNA extracts analyzed by GFAA; type: cell-based; settings: 60 μM, 2 hours at 37° C.
Method: 5×10^6 A549 cells were received in tubes from Nobel Life Sciences in 10% FBS, 5% DMSO. Upon thawing, cells were washed with RPMI to remove the DMSO. […] Cells were then lysed and applied to a DNEasy™ DNA purification kit. The resulting DNA extracts were then analyzed by GFAA.

[2] = test system: calf thymus DNA; settings: general statement on classic platinum agents; cited from earlier work
[3] = test system: A549 tumor cell line; assay: CellTiter-Glo cell viability assay in A549 tumor cell line; type: cell-based; settings: CellTiter-Glo luminescence
Method: The cell suspension was transferred to a centrifuge tube and centrifuged at 800-1000 rpm for 3-5 minutes.
The lyophilized CellTiter-Glo substrate was equilibrated to room temperature prior to use.
The contents were mixed for 2 minutes on an orbital shaker to induce cell lysis.

Molecule | DNA platination, % of Cisplatin standard [1] | DNA associated platinum in this type of experiment [2] | pIC50 [3]
N.N.[Cl][Pt][Cl] [Cisplatin] | 100% | high degree of DNA associated platinum | 
Di-1,1,3,3-tetramethylbutylcarbamate, ammonia quinoplatinium (II) [Compound 19] |  |  | 5.37
